Data reported in patent publication US6511997B1, “Aminopyrazole derivatives” (Teikoku Hormone Mfg. Co., Ltd., priority 1998, dated 2003).

First: Cn1nc(-c2ccc3c(c2)OCO3)c(-c2ccncc2)c1NC(=O)Cc1ccc(F)c(Cl)c1 [Example 110, 5-(3-Chloro-4-fluorophenylacetylamino)-1-methyl-3-(3,4-methylenedioxyphenyl)-4-(4-pyridyl)pyrazole]
Second: Cn1nc(-c2ccc(F)cc2)c(-c2ccncc2)c1NC(=O)Cc1ccc(Cl)cc1Cl [Example 41, 5-(2,4-Dichlorophenylacetylamino)-3-(4-fluorophenyl)-1-methyl-4-(4-pyridyl)pyrazole]
The melting point of the first is lower: 206.9 to 208.7 °C for the first, 224.3 to 225.4 °C for the second.

First: COc1ccc(CC(=O)Nc2n[nH]c(-c3ccc(F)cc3)c2-c2ccncc2)cc1 [Example 3, 5-(4-Fluorophenyl)-3-(4-methoxyphenylacetylanino)-4-(4-pyridyl)pyrazole]
Second: CCC(=O)Nc1n[nH]c(-c2ccc(F)cc2)c1-c1ccncc1 [Example 17, 5-(4-Fluorophenyl)-3-propionylamino-4-(4-pyridyl)pyrazole]
The melting point of the first is lower: 265.1 to 266.2 °C for the first, 272 to 275 °C for the second.

First: Cn1nc(-c2ccc(F)cc2)c(-c2ccncc2)c1NC(=O)Cc1ccc(Br)cc1 [Example 59, 5-(4-Bromophenylacetylamino)-3-(4-fluorophenyl)-1-methyl-4-(4-pyridyl)pyrazole]
Second: Cn1nc(-c2ccc(F)cc2)c(-c2ccncc2)c1NC(=O)Cc1cccnc1 [Example 77, 3-(4-Fluorophenyl)-1-methyl-4-(4-pyridyl)-5-(3-pyridylacetylamino)pyrazole]
The melting point of the first is lower: 199.8 to 202.1 °C for the first, 220 to 220.9 °C for the second.

First: COc1cccc(CC(=O)Nc2c(-c3ccncc3)c(-c3ccc(F)cc3)nn2C)c1 [Example 63, 3-(4-Fluorophenyl)-5-(3-methoxyphenylacetylamino)-1-methyl-4-(4-pyridyl)pyrazole]
Second: COc1ccc(CC(=O)Nc2c(-c3ccncc3)c(-c3ccc(F)cc3)nn2C)c(OC)c1 [Example 52, 5-(2,4-Dimethoxyphenylacetylamino)-3-(4-fluorophenyl)-1-methyl-4-(4-pyridyl)pyrazole]
The melting point of the first is lower: 135 to 141.2 °C for the first, 179.3 to 182.2 °C for the second.

Compared with CCCn1nc(-c2ccc(F)cc2)c(-c2ccncc2)c1N(C)C(=O)Cc1ccccc1 [Example 128, 3-(4-Fluorophenyl)-5-(N-methyl-N-phenylacetylamino)-1-propyl-4-(4-pyridyl)pyrazole], CN(C(=O)Cc1ccccc1)c1c(-c2ccncc2)c(-c2ccc(F)cc2)nn1C [Example 120, 3-(4-Fluorophenyl)-1-methyl-5-(N-methyl-N-phenylacetylamino)-4-(4-pyridyl)pyrazole] is higher in melting point: 124.5 to 127.3 °C for the first, 168.5 to 171.2 °C for the second.

Compared with Cn1nc(-c2ccc(F)cc2)c(-c2ccncc2)c1NC(=O)C(F)c1ccccc1 (stereo not drawn) [Example 74, 3-(4-Fluorophenyl)-5-(α-fluorophenylacetylamino)-1-methyl-4-(4-pyridyl)pyrazole], CN(C(=O)Cc1ccccc1Cl)c1c(-c2ccncc2)c(-c2ccc(F)cc2)nn1C [Example 121, 5-[N-(2-chlorophenylacetyl)-N-methylamino]-3-(4-fluorophenyl)-1-methyl-4-(4-pyridyl)pyrazole] is higher in melting point: 92.1 to 96.1 °C for the first, 168.6 to 171.2 °C for the second.

Compared with COc1ccccc1CC(=O)Nc1c(-c2ccncc2)c(-c2ccc(F)cc2)nn1CCOCc1ccccc1 [Example 103, 1-(2-Benzyloxyethyl)-3-(4-fluorophenyl)-5-(2-methoxyphenylacetylamino)-4-(4-pyridyl)pyrazole], O=C(Cc1ccccc1[N+](=O)[O-])Nc1n[nH]c(-c2ccc(F)cc2)c1-c1ccncc1 [Example 92, 5-(4-fluorophenyl)-3-(2-nitrophenylacetylamino)-4-(4-pyridyl)pyrazole] is higher in melting point: 142.9 to 144.2 °C for the first, 242.4 to 244.1 °C for the second.

Compound CN(C(=O)Cc1ccccn1)c1c(-c2ccncc2)c(-c2ccc(F)cc2)nn1C [Example 129, 3-(4-Fluorophenyl)-1-methyl-5-[N-methyl-N-(2-pyridylacetyl)amino]-4-(4-pyridyl)pyrazole] has a melting point of 144 to 145.2 °C.
